Test results reported in US20230310438A1 (priority 2019, published 2023).
Entries after “also recorded” stand apart in the source; their conditions may differ.

Tested on: whole blood of youth with OUD and healthy controls
Type: cell-based, human

Compound | Th-polarizing cytokine production | induction of cytokines and chemokines such as IL-12p40, IL-6, CXCL8, CXCL10, CCL2 and TNF
CCOCc1nc2c(N)nc3ccccc3c2n1CC(C)(C)O [Formula R848, resiquimod] | robust and balanced | –
monophosphoryl lipid A [MPLA] | – | reduced; also recorded: impaired
